The structures appear in SMILES notation.

Data set [1] relates to IMQ-induced skin inflammation in Balb/c mice. In words: Imiquimod (IMQ)-induced skin inflammation model. In kind it is in vivo, mouse. As to conditions: day 4; for ear thickness: control-treated 0.17 ± 0.002 mm. The protocol: For IMQ-induced skin inflammation, wild-type (WT) Balb/c female mice, 5–8 weeks of age, were purchased from Charles River Laboratories. All mice were housed in pathogen-free conditions at Bristol Myers Squibb (Cambridge, MA). Aldara cream containing 5% imiquimod (Patterson Veterinary Supply, Inc; Devens, MA) was applied to the ears daily (11–14 mg) for 3 days. Mice were treated twice daily (BID) on days 1–4 per os (PO) with vehicle (0.5% methylcellulose/0.25% Tween80) or RORγt inhibitors at indicated doses immediately prior to Aldara application. Ear thickness was measured using micro-calipers. Tissues were harvested on day 4, 2 hours following the last compound dose. Naïve mice are completely untreated, receiving neither control vehicle for IMQ nor Compound.
(§1) For RNA isolation & gene expression, ears are collected on day 4 in RNAlater (Qiagen) and stored at 4°C until processed. Ears were homogenized using Procellys 24 homogenizer & hard tissue homogenizing beads (Bertin Instruments), 2 cycles of 30 seconds @ 6000 rpm in RLT lysis buffer according to manufacturer’s instructions. RNA was isolated using RNAeasy Plus MiniPrep columns (Qiagen) and cDNA generated using SuperScript VILO cDNA Synthesis kit (Invitrogen). Gene expression was quantified using TaqMan Fast Master Mix & and TaqMan FAM-MGB probe sets (Applied Biosystems): Gapdh, Mm99999915_g1, Il17a, Mm00439618_m1, Il17f, Mm00521423_m1, Il22, Mm01226722_g1 & Bclxl, Mm00437783_m1. QPCR reactions were run on QuantStudio 7 instrument. Relative quantification and fold changes were calculated using ddCT values against Gapdh and normalized to control-treated animals. For PDAC xenografts, RNA was isolated from tumor sections using Qiagen RNeasy kit (cat#74106), then cDNA was prepared using 2 μg of RNA and the high capacity RNA to cDNA kit (Applied Biosystems, cat#4387406) as per manufacturer’s instructions. Biomarker expression was determined using Taqman gene expression probes (S1 Table) and Universal master mix (ThermoFisher Scientific cat#4305719) with expression levels normalized to Gapdh.
For cytokine production, ears are removed, split in half using forceps and floated, dermis side-down, in DMEM media (Gibco) and incubated at 37° C for 24 hours. Following incubation, media was removed and cytokine production assessed by Luminex assay (Bio-Rad Laboratories).

Data set [2] relates to Bclxl expression in the thymus. In words: Bclxl expression in thymus after oral dosing (QPCR). Conditions: 100 mg/kg PO, C57Bl/6 female mice; S5 Fig. Type of data set: in vivo, mouse. The protocol: Supplementary file pone.0248034.s009.tif: S5 Fig RORγt inhibitors reduce Bclxl expression in thymus of rodents. C57Bl/6 female mice were dosed PO with 100 mg/kg Compound 1, 2 or 3. Thymic tissues were collected from separate cohorts at 2, 8, 16 and 24 hours post-dose (n = 3 mice/timepoint). RNA was extracted from thymic tissues and Bclxl expression measured by QPCR. […] Time zero (‘0’) used as normalization timepoint and set to 1.0 RQ and mean set at 100% for % inhibition calculation. One-way ANOVA with Bonferroni correction for multiple comparisons used for statistical significance calculations. (TIF) Click here for additional data file.

Data set [3] relates to MOG35-55-induced EAE in C57BL/6 mice. Kind of data set: Experimental autoimmune encephalomyelitis (EAE) model. In kind it is in vivo, mouse. As to conditions: for EAE clinical score (0-5): vehicle peak 3.08 ± 0.28. How it is done: EAE studies were conducted at Hooke Laboratories. WT female C57BL/6 mice (Taconic Labs) 9 weeks of age were inoculated on day 0 with MOG35-55 peptide (Hooke Kit™ MOG35-55/CFA Emulsion PTX) (EK-2110, Hooke Laboratories, Lawrence MA) followed by intraperitoneal (IP) injections of pertussis toxin at 2 and 24 hours. Mice were treated twice daily (BID, starting at day 1) per os (PO) with vehicle (0.5% MC/0.25% Tween80) or RORγt inhibitors at indicated doses. FTY720 (Gilenya) was dosed once daily (QD) at 3 mg/kg starting at day 1. EAE clinical scores were evaluated daily and scored from 0–5 according to Hooke Lab EAE scoring guidelines http://hookelabs.com/services/cro/eae/MouseEAEscoring.html. Mean clinical scores & body weight loss were assessed and statistical significance calculated by Wilcoxon’s non-parametric or 2-tailed Student’s t-test, respectively. All studies performed were approved in accordance with the Institutional Animal Care and Use Committee of Bristol Myers Squibb and complied according to Bristol Myers Squibb guidelines.

For data set [4], the system named is RORγt target genes in KP/C tumor samples. In words: RORγt target gene expression in KP/C tumors (qPCR). In kind it is in vivo, mouse. How it is done:
as §1, with “Gapdh. […]” for “Gapdh.”
(Real-time PCR tracks product formation cycle by cycle.)

The subject of data set [5] is RORγt-dependent inflammation. In words: RORγt/Th17-dependent inflammation in vivo, overall statement (acute and chronic settings). As to conditions: with IC50 coverage alone (same level of response).

Regarding `O=C(O)[C@@H]1CCC(c2nn(C(=O)c3c(Cl)cccc3C(F)(F)F)c3cccc(F)c23)=C[C@H]1O` [Compound 3], the ear thickness in data set [1] (25 mg/kg PO) was found to be 0.163 ± 0.002 mm; in data set [1] (50 mg/kg PO) it was 0.156 ± 0.001 mm; in data set [1] (100 mg/kg PO), 0.143 ± 0.002 mm. In addition, in data set [1] (50 and 100 mg/kg dosed groups), the “Th17-cytokine gene expression in ear skin” value is on record as “reduced”. Also, in data set [1] (oral administration, IMQ model), the “Bclxl expression in skin tissues” value is recorded as “significantly reduced”. Also, the “Bclxl expression in the thymus” value in data set [2] was “modulation of Bclxl expression in the thymus”. For the same compound, the “EAE clinical score (0-5)” value in data set [3] (3 mg/kg BID PO) amounted to 2.79 ± 0.25; in data set [3] (10 mg/kg BID PO) it was 2.32 ± 0.21; in data set [3] (30 mg/kg BID PO), 1.5 ± 0.27. For the same compound, in data set [3] (30 mg/kg BID PO, vehicle day 12), the significant disease onset was 15 days. In data set [3] (maintained for the duration of study), the “body weight loss in EAE” value is recorded as “significant reductions in body weight loss”. The “Klf7 and Osmr expression in tumors” value in data set [4] (all treatment groups (alone or with gemcitabine)) is given as “decreased in all treatment groups”. In data set [4] (combination of Compound 3 and gemcitabine), the “Msi2 expression in tumors” value was “significant decrease”. Further, the “inhibition of Th17-dependent responses” value in data set [5] was ~ 45%.

The values above are taken from PMC8577775, “Small molecule allosteric inhibitors of RORγt block Th17-dependent inflammation and associated gene expression in vivo” (PLoS ONE, 2021).
